Where a SMILES comes first, the peptide text is derived from it. The star is where a group is joined. Lauroyl = CCCCCCCCCCCC(=O)*
Tests used:
[1] = molecular target: T1, GST-E2F-1 and GST-DP-1 binding to 32P-labeled E2F probe (Homo sapiens, UniProt Q01094+Q14186); assay: Assay of E2F-DNA binding-inhibiting activity by gel shift assay; conditions: 30° C. 30 minutes
T1 construct: a part of human E2F-1 (101-st to 227-th amino acid residues from the N terminus) and GST; a part of the human DP-1 (84-th to 241-th amino acid residues from the N terminus) with GST; made in house; host or cells: Escherichia coli XL1-blue
Protocol: Assay of E2F-DNA Binding-inhibiting Activity by Gel Shift Assay (1-1) Expression of a Fusion Protein of E2F-1 and DP-1 in Escherichia Coli
So as to assay the activity to inhibit E2F-DNA binding, a fusion protein of glutathione-S-transferase (abbreviated as GST hereinbelow) with the genes of human E2F-1 [Cell, 70, 337 (1992); Cell, 70, 351 (1992)] and human DP-1 [Genes Dev., 7, 1850 (1993)] was prepared.
(1-2) Gel Shift Experiments by Using GST-E2F-1 and GST-DP-1
The following two oligonucleotides including the E2F binding sequence, which are complementary sequences to each other;
were added individually at a concentration of 10 μM into a solution comprising 10 mM MgCl2, 5 mM DTT and 50 mM Tris-HCl(pH 7.5), for treatment at 75° C. for 10 minutes, and the resulting solutions were left to stand at ambient temperature while gradually lowering the temperature for annealing. The resulting double-stranded DNA solution (10 μl) was kept in a reaction solution (30 μL) [50 mM Tris-HCl buffer(pH 7.5) containing 10 mM MgCl2, 5 mM dithiothreitol (DTT) 10 units of T4 polynucleotide kinase (manufactured by TaKaRa), 0.2 mCi [γ-^32P]ATP (7,000 Ci/mmol ATP, manufactured by Amersham Co.)] at 37° C. for 60 minutes, to label the 5′ terminus. By adding 0.5 M EDTA (2 μl) to the reaction solution, the reaction was terminated, and thereafter, unreactive [γ-^32P]ATP was removed by using a NickColumn G-50 (manufactured by Pharmacia Co.), to recover E2F probe. Into 20 mM HEPES buffer(pH 7.4)(20 μl) containing 40 mM KCl, 1 mM MgCl2, 0.1 mM EDTA, 0.1% Nonidet P-40, and 1 mM DTT were added 0.1 pmol of ^32P-labeled E2F probe, 100 ng of GST-E2F-1, 100 ng of GST-DP-1, 2 μg of calf thymus DNA and 0 to a 100 μM test compound, for reaction at 30° C. for 30 minutes. After the reaction, the reaction solution was electrophoresed by using 0.5×TBE [2.5 mM Tris-borate buffer, pH 8.3, 0.1 mM EDTA] as an electrophoresis buffer in 4% polyacrylamide gel. GST-E2F-1 and GST-DP-1 proteins were bound to the labeled E2F probe, so that the mobility thereof was reduced. Accordingly, the proteins were detected as upper bands. After electrophoresis, the gel was dried to assay the radioactivity in bands shifting upward, by using an image analyzer Type BAS2000 (manufactured by Fuji Film Co.). The radioactivity in each lane was assayed, to calculate the inhibition ratio, on the basis of the radioactivity of a sample with no test compound contained in the reaction system, according to the following equation.
A: radioactivity in a band shifted in the absence of any test compound
B: radioactivity in a band shifted in the presence of a test compound.

[2] = system: E2F dependent transcription (luciferase reporter cell strain E2F-1/Saos-2-1); assay: Assay of activity suppressing E2F responsive transcription (2): reporter cell strain E2F-1/Saos-2-1, Lipofect AMINE; type: cell-based, human; conditions: luciferase activity corrected with protein concentration
Source text: Assay of Activity Suppressing E2F Responsive Transcription (2)
Into the XhoI- and HindIII sites of luciferase reporter vector pluc2 with neomycin (G418) resistant gene [Eur. J. Haematol., 52, 73 (1994)] were inserted an SphI-HindIII fragment composed of the 200 base pairs in the core promoter region of the SV40 initial gene 128-0/5243-5171, base number according to “DNA Tumor Viruses, Molecular Biology of Tumor Viruses, 2nd Ed., Part 2 Revised, Edited by J. Tooze, Cold Spring Harbor Laboratory Press, 1982” and a fragment produced by annealing the following two synthetic oligonucleotides;
and then inserting the annealed product into the XhoI and Asp718 sites of the constructed luciferase vector pSE01uc2, reporter plasmid pE2FII-1luc2 was constructed.
By the following method, the plasmid was introduced into a human osteosarcoma-derived cell strain Saos-2 (ATCC HTB85), and the resulting cell was defined as E2F responsive reporter cell. 2×10^6 cells of the Saos-2 cultured in the presence of 5% CO2 in the medium A at 37° C. were suspended in K-PBS buffer (50 μl) [137 mM KCl, 2.7 mM NaCl, 8.1 mM Na2HPO4, 1.5 mM KH2PO4, 4 mM MgCl2], followed by addition of 1 μg/μl plasmid pE2FII-1 luc2 (4 μg) prepared above. […]

[3] = system: E2F responsive transcription (human cdc2 promoter-luciferase reporter pcdc21uc2); assay: Assay of activity suppressing E2F responsive transcription (1): human cdc2 promoter luciferase reporter in Saos-2; type: cell-based; conditions: 100 μM, electroporation, 40 hours, luciferase activity corrected with protein concentration
Protocol: Assay of Activity Suppressing E2F Responsive Transcription (1)
The promoter sequence of human cdc2 gene [EMBO J., 11, 1797 (1992)], which has been reported to have an endogenous E2F responsive sequence and to effect an E2F dependent transcription, was bound to the upstream of the firefly luciferase gene, which was designated as reporter gene.
Two micrograms (2 μg) of the plasmid pcdc21uc2 thus prepared were introduced, together with a test compound (100 μM), into 1×10^6 cells of Saos-2 by electroporation, in the same manner as in the Test Example 2. As in the Test Example 2, the resulting cells were inoculated into a cell culture dish of a 60-mm diameter for culturing in the presence of 5% CO2 at 37° C. for 40 hours, and thereafter, the cells were peeled off and recovered by centrifugation. […] The luciferase activity was assayed as follows; 300 μl of a substrate solution [25 mM glycylglycine buffer(pH 7.8), 15 mM MgSO4, 5 mM ATP, and 0.33 mM luciferin] was automatically injected into a luminometer LB953 (manufactured by Beltold Co.), to assay the luminescence for 10 seconds, which was defined as luciferase activity. […] Based on the luciferase activity (after correction with protein concentration) of a sample with no test compound contained in the reaction system, the inhibition ratio was calculated by the following equation. […]

[4] = system: human osteosarcoma-derived cell line Saos-2; assay: Assay of growth inhibiting activity on Saos-2 cell (test compound introduced by electric pulse); type: cell-based; conditions: 100 μM, 40 hours culture, viable cell number
Protocol: Assay of Growth Inhibiting Activity on Saos-2 cell
1×10^6 cells of a human osteosarcoma-derived cell line Saos-2 (ATCC HTB85) cultured in an RPMI 1640 culture medium containing 10% fetal calf serum (manufactured by Nissui Co.; referred to as medium A hereinbelow) in the presence of 5% CO2 at 37° C. were suspended in 50 μl of K-PBS buffer [137 mM KCl, 2.7 mM NaCl, 8.1 mM Na2HPO4, 1.5 mM KH2PO4, and 4 mM MgCl2], followed by addition of a test compound appropriately diluted with K-PBS to a final concentration of 100 μM. The suspension was transferred on a 0.2-cm width cuvette (manufactured by BIO-RAD Laboratories) for loading an electric pulse (conditions: an electric voltage=3 kV/cm, a pulse width=100 μ seconds, a pulse interval=one second, a pulse number=two) by using a Shimadzu cell fusion system SSH-1 [manufactured by Shimadzu Corporation]. After leaving the cuvette to stand for 10 minutes, the cells were recovered and suspended in 3 ml of the medium A, for inoculation on a cell culture dish of a 60-mm diameter(manufactured by Iwaki Glass Co.). […] Based on the cell number with no test compound under load of an electric pulse, the inhibition ratio was calculated by the following equation. […]

T1 sequence (Q01094 101-227): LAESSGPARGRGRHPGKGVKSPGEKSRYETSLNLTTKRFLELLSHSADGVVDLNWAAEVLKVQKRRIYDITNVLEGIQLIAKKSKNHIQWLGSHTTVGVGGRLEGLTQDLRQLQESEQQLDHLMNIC
T1 sequence (Q14186 84-241): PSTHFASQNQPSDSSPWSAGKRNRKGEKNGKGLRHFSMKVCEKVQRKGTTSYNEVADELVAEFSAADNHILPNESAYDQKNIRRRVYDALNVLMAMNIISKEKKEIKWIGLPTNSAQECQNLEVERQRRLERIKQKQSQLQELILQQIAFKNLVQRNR

Molecule	Inhibition ratio (%) ([1]; 25 μM test compound)	Inhibition ratio (%) ([1]; 100 μM test compound)	Inhibition ratio (%) ([2]; 1 μM)	Inhibition ratio (%) ([2]; 10 μM)	Inhibition ratio (%) [3] [%]	Inhibition ratio (%) [4] [%]	Inhibition ratio (%) ([1]; 1 μM test compound)	Inhibition ratio (%) ([1]; 10 μM test compound)
CCCCCCCCCCCC(=O)N[C@@H](CC(N)=O)C(=O)N[C@@H](CCC(=O)O)C(=O)N[C@@H](CO)C(=O)N[C@@H](C)C(=O)N[C@@H](Cc1ccc(O)cc1)C(=O)N[C@@H](CC(=O)O)C(=O)N[C@@H](CCC(N)=O)C(=O)N[C@@H](CCCCN)C(=O)N[C@@H](CC(N)=O)C(=O)N[C@H](C(=O)N[C@@H](CCCNC(=N)N)C(=O)N[C@@H](CCCNC(=N)N)C(=O)N[C@@H](CCCNC(=N)N)C(=O)N[C@H](C(=O)N[C@@H](Cc1ccc(O)cc1)C(=O)N[C@@H](CC(=O)O)C(=O)N[C@@H](C)C(=O)N[C@@H](CC(C)C)C(=O)N[C@@H](CC(N)=O)C(=O)N[C@H](C(=O)N[C@@H](CC(C)C)C(=O)N[C@@H](CCSC)C(=O)N[C@@H](C)C(=O)N[C@@H](CCSC)C(=O)N[C@@H](CC(N)=O)C(=O)N[C@H](C(=O)N[C@H](C(=O)N[C@@H](CO)C(N)=O)[C@@H](C)CC)[C@@H](C)CC)C(C)C)C(C)C)[C@@H](C)CC [Compound Ib-3] (Lauroyl-NESAYDQKNIRRRVYDALNVLMAMNIIS-NH2)	17.9	49.5	–	–	–	–	–	–
Ac-Ala-Arg-Gly-Arg-Gly-Arg-His-Pro-Gly-Lys-Gly-Val-Lys-Ser-Pro-Gly-Glu-Arg-Ser-Arg-Tyr-Glu-Thr-Ser-Leu-Asn-Leu-Thr-Thr-Lys-Arg-Phe-Leu-Glu-Leu-NH2 (Ac-ARGRGRHPGKGVKSPGERSRYETSLNLTTKRFLEL-NH2) [Compound Ic-1]	–	–	17	28	–	–	–	–
Ac-NESAYDQKNIRRRVYDALNVLMAMNIIS-NH2 [Compound Ib-1]	–	87.6	–	–	83	73	13.7	52.9

Reference: patent publication US6713449B1, “E2F activity inhibitory compounds” (Kyowa Hakko Kogyo Co., Ltd., priority 1996, dated 2004)
